Laboratory results taken from US8785447B2, “Use of dopamine D3 receptor ligands for the production of drugs for treating renal function disorders” (AbbVie Deutschland GmbH & Co. KG, priority 2000, dated 2014).

Tests used:
Type in all cases: in vivo, male Sprague-Dawley rats
[1] = tested on: animal experimental model of diabetic nephropathy (rats with streptozotocin-induced diabetes mellitus); experiment: Clearance investigation (renal 3H-inulin clearance, GFR) in anesthetized streptozotocin-diabetic rats; details: for glomerular filtration rate (GFR): anesthetized diabetic rats after 14 to 16 days, 3H-inulin clearance, S-sulpiride 25 mg/kg/d, D3-A 5 mg/kg/d, untreated diabetic 1.10 vs. time control 0.83
Experimental: (§1) The action of the dopamine D3 antagonists was investigated in an animal experimental model of diabetic nephropathy. Rats in which diabetes mellitus had been induced by administration of streptozotocin developed marked glomerular hyperfiltration within 14 days.
(§2) 60 mg/kg of streptozotocin, dissolved in citrate buffer (21 mg of citric acid per 1 ml of double-distilled water), were injected intraperitoneally into male Sprague-Dawley rats having a body weight of 180 to 200 g. Diabetes mellitus was regarded as being induced successfully when an evening glucose concentration of at least 180 mg/dl was found in the venous blood after 24 hours. The blood glucose values of the diabetic animals were between 350 and 450 mg/dl. Insulin substitution was thus not necessary. The body weight of the experimental animals increased about 5 g per day. The same volume of citrate buffer was injected intraperitoneally into nondiabetic time control animals (CON). They had blood glucose values of between 90 and 1120 mg/dl.
(§3) Immediately after successful determination of diabetes mellitus, the animals were accommodated in normal cages with standard feed (Altromin 1320) and mains water ad libitum. By means of different medicinal treatment (administration of the substances via the drinking water), the following four experimental groups were formed: • CON (1) nondiabetic animals without additional treatment (time control) • DM-VHC (2) diabetic animals without additional treatment (diabetic control) • DM-SUL (3) diabetic animals with S-sulpiride treatment (25 mg/kg/d) • DM-D3 (4) diabetic animals with D3-A treatment (D3-A1: D3 receptor antagonist according to Example (7) (5 mg/kg/d); D3-A2: D3 receptor antagonist according to Example (11))
(§4) The volume of liquid absorbed was recorded daily. Every third day, the body weight and the blood glucose level of the animals were determined. After 12 days, the experimental animals were kept in metabolic cages for 24 hours for urine collection. The protein concentration in the urine was determined according to the standard method described by Lowry. For this, after incubation of the samples with 1 M NaOH a color reaction was induced with Folin reagent (phenol-Ciocalteu's), whose intensity was quantified photometrically. The albumin concentration in the urine was determined by a radioimmunoassay (RIA) specific for albumin. A kit from Biermann (KHAD 2: albumin RIA), was employed which used a polyclonal antibody against human serum albumin (goat) and ^125I-labeled human serum albumin as a tracer. After 14 to 16 days, the animals were anesthetized with thiopental (80 mg/kg) and polyethylene catheters were placed in the jugular vein and the carotid artery and also in the urinary bladder. The glomerular filtration rate (GFR) was determined by means of the renal ^3H-inulin clearance. The mean arterial blood pressure (MAP) and the heart rate (HR) were furthermore recorded during the experiment. At the end of the clearance experiments, the kidneys were removed and subjected to a histopathological examination.

[2] = tested on: animal experimental model of diabetic nephropathy (rats with streptozotocin-induced diabetes mellitus); experiment: Histopathological examination of the kidneys of streptozotocin-diabetic rats; details: for structural intrarenal changes occurring in diabetic nephropathy: comparison of the treatment groups; for glomerular hypertrophy (enlargement of the glomeruli): mean of 20 microscopically measured areas, S-sulpiride 25 mg/kg/d, D3-A1 5 mg/kg/d
Experimental: as §2, §3, §4

[3] = tested on: animal experimental model of diabetic nephropathy (rats with streptozotocin-induced diabetes mellitus); experiment: 24-hour urine collection (protein by Lowry, albumin by RIA) in streptozotocin-diabetic rats; details: for albuminuria / proteinuria: 24-hour urine of conscious diabetic rats after 12 days, via drinking water, S-sulpiride 25 mg/kg/d, D3-A1 5 mg/kg/d; for albuminuria: untreated diabetic 118 vs. time control 23; for proteinuria: untreated diabetic 133 vs. time control 46
Experimental: as §1, §2, §3, §4

[4] = tested on: animal experimental model of diabetic nephropathy (rats with streptozotocin-induced diabetes mellitus); experiment: Kidney wet weight of streptozotocin-diabetic rats
Experimental: as §2, with “[…]. […]” for “1120 mg/dl.”
The volume of liquid absorbed was recorded daily. Every third day, the body weight and the blood glucose level of the animals were determined. […] The protein concentration in the urine was determined according to the standard method described by Lowry. For this, after incubation of the samples with 1 M NaOH a color reaction was induced with Folin reagent (phenol-Ciocalteu's), whose intensity was quantified photometrically. The albumin concentration in the urine was determined by a radioimmunoassay (RIA) specific for albumin. […] The glomerular filtration rate (GFR) was determined by means of the renal ^3H-inulin clearance. […]

[5] = diabetic rats, subchronic treatment
[6] = diabetic rats, subchronic treatment, 30 mg/kg body weight per day

SMILES | glomerular filtration rate (GFR) [1] [mL/min] | renal hemodynamic changes in the course of diabetic nephropathy [1, 5] | structural intrarenal changes occurring in diabetic nephropathy [2] | glomerular hypertrophy (enlargement of the glomeruli) [2] | albuminuria [3] [µg/day] | proteinuria [3] [mg/day] | pathological protein and albumin excretion ([3]; diabetic rats, comparison of the treatment groups) | diabetes-induced renal hyperperfusion [1, 6] | glomerular hyperfiltration [1, 6] | kidney wet weight ([4]; diabetic rats treated with D3-A2, nondiabetic 0.9±0.1, DM-VHC 1.1+0.04) | incipient renal hypertrophy [4, 6]
CCN1CCC[C@H]1CNC(=O)c1cc(S(N)(=O)=O)ccc1OC [sulpiride, S-sulpiride, reference compound] | 0.71 | significant decrease | not | likewise to be observed | 101 | 178 | – | – | – | – | –
CC(=CCN1CCN(c2cc(C(F)(F)F)nc(C(C)(C)C)n2)CC1)CSc1nnc(N)n1C [Example 7] | 0.83 | significant decrease | abolished | not | 18 | 113 | markedly reduced | – | – | – | –
CC(C)(C)c1nc(N2CCN(CCCSc3nccc(O)n3)CC2)cc(C(F)(F)F)n1.O=C(O)/C=C/C(=O)O [Example 11, 2-(3-(4-(2-t-Butyl-6-trifluoromethyl)pyrimidin-4-yl)piperazin-1-yl)propylmercaptopyrimidin-4-ol fumarate] | – | – | abolished | – | – | – | – | distinctly reduced | distinctly reduced | 0.96+0.03 g per 100 g body weight | distinct reduction
